Data on one compound can be found in patent US7960438B2, “Use of agomelatine in obtaining medicaments intended for the treatment of generalized anxiety disorder” (Les Laboratoires Servier, priority 2006, dated 2011).

This series concerns patients suffering from Generalized Anxiety Disorder. As to the kind of experiment: Clinical study versus placebo in Generalized Anxiety Disorder. It counts as in vivo. The method, then:
A clinical study versus placebo has been carried out in 121 patients. Those 121 patients have been randomised in two parallel groups and received either agomelatine at 25 mg per day or placebo.
After treatment for two weeks, and in case of low response, doses have been increased to 50 mg per day in double blind study for patients receiving agomelatine with a IVRS system (Interactive Voice Response System). Treatment for 12 weeks was carried out.
The efficacy has been appreciated with evaluation tools recommended by the health authorities, such as the Hamilton Anxiety Scale (Hamilton M., J. Neurol. Neurosurg. Psychiat., 1959, 23, 56-62), or the Sheehan Disability Scale (International Clinical Psychopharmacology, 1996, 11, 89-95). The acceptability profile has also been evaluated.

Consider `COc1ccc2cccc(CCNC(C)=O)c2c1` [agomelatine, N-[2-(7-methoxy-1-naphthyl)ethyl]acetamide], for which the “acceptability profile for the patients” value (25 mg per day (up to 50 mg per day), 12 weeks) was “good acceptability profile”. The “difference between agomelatine group and placebo group on the total score of the Hamilton Anxiety Scale” value (121 patients, 25 mg per day (increased to 50 mg per day in case of low response after two weeks), 12 weeks, p=0.040) was −3.28. The “discontinuation syndrome when the treatment was stopped” value (after stopping 12 weeks treatment) is “absence of the discontinuation syndrome”.
